Key:
Format in all cases: in vivo
Echinochloa crus-galli = test: Paddy herbicidal activity test; details: irrigated pot, treated at 3.5 leaf stage of Echinochloa crus-galli, 30 days
Method: (§1) Rice paddy soil was filled into a 1/10000 are pot followed by the addition of suitable amounts of water and chemical fertilizer, kneading, seeding with Echinochloa crus-galli, Monochoria vaginalis and Scirpus juncoides and maintaining in an irrigated state at a water depth of 3 cm. Wettable powders of Target Compound (I) shown in Table 1 prepared in compliance with the preparation examples were diluted with a suitable amount of water, rice plants in the 2.0 leaf stage were transplanted during 3.5 leaf stage of Echinochloa crus-galli, and treated by dropping in chemical in the prescribed amount per 10 are using a pipette. After treating for 30 days in a glass greenhouse at an average atmospheric temperature of […], the herbicidal efficacy thereof was investigated. Evaluation of herbicidal efficacy was carried out by comparing growth inhibition rate (%) with an untreated group, while evaluation of chemical damage was carried out by comparing growth inhibition rate (%) with the state of a complete eradication group, and were evaluated at 11 levels indicated below. • 0 (exponent): 0% to less than 10% (growth inhibition rate) • 1: 10% to less than 20% • 2: 20% to less than 30% • 3: 30% to less than 40% • 4: 40% to less than 50% • 5: 50% to less than 60% • 6: 60% to less than 70% • 7: 70% to less than 80% • 8: 80% to less than 90% • 9: 90% to less than 100% • 10: 100%

Monochoria vaginalis = test: Paddy herbicidal activity test; details: irrigated pot, treated at 3.5 leaf stage of Echinochloa crus-galli, 30 days
Method: as §1

Scirpus juncoides = test: Paddy herbicidal activity test; details: irrigated pot, treated at 3.5 leaf stage of Echinochloa crus-galli, 30 days
Method: as §1

Oryza sativa = test: Paddy herbicidal activity test, chemical damage to transplanted rice; details: rice transplanted in 2.0 leaf stage, 30 days
Method: as §1

Amaranthus retroflexus [1] = test: Farming soil treatment test; details: soil surface spray prior to weed growth, 30 days, 30° C.
Method: (§2) Evaluation of herbicidal efficacy was carried out by comparing growth inhibition rate (%) with an untreated group, while evaluation of chemical damage was carried out by comparing growth inhibition rate (%) with the state of a complete eradication group, and were evaluated at 11 levels indicated below. • 0 (exponent): 0% to less than 10% (growth inhibition rate) • 1: 10% to less than 20% • 2: 20% to less than 30% • 3: 30% to less than 40% • 4: 40% to less than 50% • 5: 50% to less than 60% • 6: 60% to less than 70% • 7: 70% to less than 80% • 8: 80% to less than 90% • 9: 90% to less than 100% • 10: 100% Field soil was filled into a 1/6000 are pot followed by seeding with Digitaria ciliaris, Chenopodium album and Amraranthus retroflexus and covering with soil. Wettable powders of compounds of formula (I) shown in Table 1 prepared in compliance with the preparation examples were diluted with water to the prescribed amount of chemical and uniformly sprayed onto each soil surface layer using 100 liters of sprayed water per 10 are prior to weed growth following seeding. After treating for 30 days in a glass greenhouse at an average atmospheric temperature of 30° C., the herbicidal efficacy thereof was investigated. Evaluation of herbicidal efficacy was carried out in the same manner as the above-mentioned Test Example 1,

Chenopodium album [2] = test: Farming soil treatment test; details: soil surface spray prior to weed growth, 30 days, 30° C.
Method: as §2

Digitaria ciliaris [3] = test: Farming soil treatment test; details: soil surface spray prior to weed growth, 30 days, 30° C.
Method: as §2

Amaranthus retroflexus [4] = test: Weed foliar treatment test (Test 3); details: foliar spray at 1.0 to 2.0 leaf stage of Digitaria ciliaris, 3 weeks, 25° C.
Method: (§3) Evaluation of herbicidal efficacy was carried out by comparing growth inhibition rate (%) with an untreated group, while evaluation of chemical damage was carried out by comparing growth inhibition rate (%) with the state of a complete eradication group, and were evaluated at 11 levels indicated below. • 0 (exponent): 0% to less than 10% (growth inhibition rate) • 1: 10% to less than 20% • 2: 20% to less than 30% • 3: 30% to less than 40% • 4: 40% to less than 50% • 5: 50% to less than 60% • 6: 60% to less than 70% • 7: 70% to less than 80% • 8: 80% to less than 90% • 9: 90% to less than 100% • 10: 100% Soil was filled into a 1/6000 are pot followed by seeding with Digitaria ciliaris, Chenopodium album and Amaranthus retroflexus, covering with soil, and cultivating in a glass greenhouse at an average atmospheric temperature of 25° C. Wettable powders of Target Compound (I) shown in Table 1 prepared in compliance with the preparation examples were diluted with water to the prescribed amount of chemical and uniformly sprayed onto the weeds using 150 liters of sprayed water per 10 are when Digitaria ciliaris had grown to the 1.0 to 2.0 leaf stage. After treating for 3 weeks in a glass greenhouse at an average atmospheric temperature of 25° C., the herbicidal efficacy thereof was investigated. Evaluation of herbicidal efficacy was carried out in the same manner as the above-mentioned Test Example 1.

Chenopodium album [5] = test: Weed foliar treatment test (Test 3); details: foliar spray at 1.0 to 2.0 leaf stage of Digitaria ciliaris, 3 weeks, 25° C.
Method: as §3

Digitaria ciliaris [6] = test: Weed foliar treatment test (Test 3); details: foliar spray at 1.0 to 2.0 leaf stage of Digitaria ciliaris, 3 weeks, 25° C.
Method: as §3

Digitaria ciliaris [7] = test: Weed foliar treatment test (Test 4, higher leaf stage); details: 10 g a.i./10a; foliar spray at 4.0 to 5.0 leaf stage of Digitaria ciliaris (plant height 10 cm to 15 cm); 20 days, 25° C.
Method: (§4) Evaluation of herbicidal efficacy was carried out by comparing growth inhibition rate (%) with an untreated group, while evaluation of chemical damage was carried out by comparing growth inhibition rate (%) with the state of a complete eradication group, and were evaluated at 11 levels indicated below. • 0 (exponent): 0% to less than 10% (growth inhibition rate) • 1: 10% to less than 20% • 2: 20% to less than 30% • 3: 30% to less than 40% • 4: 40% to less than 50% • 5: 50% to less than 60% • 6: 60% to less than 70% • 7: 70% to less than 80% • 8: 80% to less than 90% • 9: 90% to less than 100% • 10: 100% Field soil was filled into a 1/4500 are pot followed by seeding with Digitaria ciliaris and Galinsoga parviflora, covering with soil and cultivating in a glass greenhouse at an average atmospheric temperature of 25° C. Wettable powders of Target Compound (I) shown, in Table 1 prepared in compliance with the preparation examples were diluted with water to the prescribed amount of chemical and uniformly sprayed onto the weeds using 100 liters of sprayed water per 10 are when Digitaria ciliaris had grown to the 4.0 to 5.0 leaf stage (plant height: 10 cm to 15 cm). After treating for 20 days in a glass greenhouse at an average atmospheric temperature of 25° C., the herbicidal efficacy thereof was investigated. Evaluation of herbicidal efficacy was carried out in the same manner as the above-mentioned Test Example 1.

Galinsoga parviflora = test: as above; details: 10 g a.i./10a; foliar spray at 4.0 to 5.0 leaf stage of Digitaria ciliaris; 20 days, 25° C.
Method: as §4

| Compound | herbicidal efficacy (growth inhibition rate level), Echinochloa crus-galli (Echinochloa crus-galli; 1 g a.i./10a) | herbicidal efficacy (growth inhibition rate level), Echinochloa crus-galli (Echinochloa crus-galli; 5 g a.i./10a) | herbicidal efficacy (growth inhibition rate level), Monochoria vaginalis (Monochoria vaginalis; 1 g a.i./10a) | herbicidal efficacy (growth inhibition rate level), Monochoria vaginalis (Monochoria vaginalis; 5 g a.i./10a) | herbicidal efficacy (growth inhibition rate level), Scirpus juncoides (Scirpus juncoides; 1 g a.i./10a) | herbicidal efficacy (growth inhibition rate level), Scirpus juncoides (Scirpus juncoides; 5 g a.i./10a) | chemical damage (growth inhibition rate level), Oryza sativa (Oryza sativa; 1 g a.i./10a) | chemical damage (growth inhibition rate level), Oryza sativa (Oryza sativa; 5 g a.i./10a) | herbicidal efficacy (growth inhibition rate level), Amaranthus retroflexus (Amaranthus retroflexus [1]; 5 g a.i./10a) | herbicidal efficacy (growth inhibition rate level), Amaranthus retroflexus (Amaranthus retroflexus [1]; 10 g a.i./10a) | herbicidal efficacy (growth inhibition rate level), Chenopodium album (Chenopodium album [2]; 5 g a.i./10a) | herbicidal efficacy (growth inhibition rate level), Chenopodium album (Chenopodium album [2]; 10 g a.i./10a) | herbicidal efficacy (growth inhibition rate level), Digitaria ciliaris (Digitaria ciliaris [3]; 5 g a.i./10a) | herbicidal efficacy (growth inhibition rate level), Digitaria ciliaris (Digitaria ciliaris [3]; 10 g a.i./10a) | herbicidal efficacy (growth inhibition rate level), Amaranthus retroflexus (Amaranthus retroflexus [4]; 5 g a.i./10a) | herbicidal efficacy (growth inhibition rate level), Amaranthus retroflexus (Amaranthus retroflexus [4]; 10 g a.i./10a) | herbicidal efficacy (growth inhibition rate level), Chenopodium album (Chenopodium album [5]; 5 g a.i./10a) | herbicidal efficacy (growth inhibition rate level), Chenopodium album (Chenopodium album [5]; 10 g a.i./10a) | herbicidal efficacy (growth inhibition rate level), Digitaria ciliaris (Digitaria ciliaris [6]; 5 g a.i./10a) | herbicidal efficacy (growth inhibition rate level), Digitaria ciliaris (Digitaria ciliaris [6]; 10 g a.i./10a) | also measured |
| --- | --- | --- | --- | --- | --- | --- | --- | --- | --- | --- | --- | --- | --- | --- | --- | --- | --- | --- | --- | --- | --- |
| N#Cc1cnn(-c2nn3c(c2Cl)CCCC3)c1NC(=O)CCCCl [Control Agent 1.37] | 3 (3: 30% to less than 40%) | 3 (3: 30% to less than 40%) | 2 (2: 20% to less than 30%) | 4 (4: 40% to less than 50%) | 1 (1: 10% to less than 20%) | 2 (2: 20% to less than 30%) | 2 (2: 20% to less than 30%) | 2 (2: 20% to less than 30%) | 5 (5: 50% to less than 60%) | 6 (6: 60% to less than 70%) | 4 (4: 40% to less than 50%) | 5 (5: 50% to less than 60%) | 3 (3: 30% to less than 40%) | 4 (4: 40% to less than 50%) | 6 (6: 60% to less than 70%) | 7 (7: 70% to less than 80%) | 4 (4: 40% to less than 50%) | 5 (5: 50% to less than 60%) | 3 (3: 30% to less than 40%) | 4 (4: 40% to less than 50%) | herbicidal efficacy (growth inhibition rate level), Digitaria ciliaris (Digitaria ciliaris [7]): 2 (2: 20% to less than 30%); herbicidal efficacy (growth inhibition rate level), Galinsoga parviflora (Galinsoga parviflora): 4 (4: 40% to less than 50%) |
| CCC(=O)Nc1c(C#N)cnn1-c1nn2c(c1Cl)CCCC2 [Control Agent 4.187] | 2 (2: 20% to less than 30%) | 3 (3: 30% to less than 40%) | 3 (3: 30% to less than 40%) | 3 (3: 30% to less than 40%) | 0 (0 (exponent): 0% to less than 10% (growth inhibition rate)) | 1 (1: 10% to less than 20%) | 1 (1: 10% to less than 20%) | 2 (2: 20% to less than 30%) | 4 (4: 40% to less than 50%) | 5 (5: 50% to less than 60%) | 2 (2: 20% to less than 30%) | 3 (3: 30% to less than 40%) | 2 (2: 20% to less than 30%) | 3 (3: 30% to less than 40%) | 5 (5: 50% to less than 60%) | 6 (6: 60% to less than 70%) | 2 (2: 20% to less than 30%) | 3 (3: 30% to less than 40%) | 2 (2: 20% to less than 30%) | 3 (3: 30% to less than 40%) | herbicidal efficacy (growth inhibition rate level), Digitaria ciliaris (Digitaria ciliaris [7]): 2 (2: 20% to less than 30%); herbicidal efficacy (growth inhibition rate level), Galinsoga parviflora (Galinsoga parviflora): 3 (3: 30% to less than 40%) |
